{"source": "patent US6660297B2", "about": "“Nutritional supplement to treat macular degeneration” (Bausch & Lomb Incorporated, priority 2001, dated 2003)", "origin": "cited, not measured here", "key": {"[1]": {"conditions": "in vivo"}, "[2]": {"conditions": "1.0 mg equal to 1 IU"}, "[3]": {"experiment": "not given", "remark": "listed apart in the source"}, "[4]": {"conditions": "in vivo", "remark": "listed apart in the source"}, "macular degeneration": {"test_system": "macular degeneration", "conditions": "80 mg of zinc versus placebo"}, "[5]": {"conditions": "consumed daily"}, "[6]": {"conditions": "in vivo", "remark": "listed apart in the source"}}, "note": "Read-outs that look alike come from different tables or passages of the source."}
{"compound": "[Cu]", "note": "[copper]", "values": [{"measurement": "effect on zinc absorption", "setting": "[1]", "value": "does not appear to have a deleterious effect"}]}
{"compound": "CC(=O)Oc1c(C)c(C)c2c(c1C)CC[C@@](C)(CCC[C@H](C)CCC[C@H](C)CCCC(C)C)O2", "note": "(racemic) [dl-alpha tocopheryl acetate]", "values": [{"measurement": "level at which no adverse effects have been observed", "setting": "[2]", "value": "≤ 800", "unit": "mg"}]}
{"compound": "[O]=[Zn]", "note": "[zinc oxide]", "values": [{"measurement": "tolerability in the digestive system", "setting": "in vivo", "value": "well tolerated"}]}
{"compound": "CC1=C(/C=C/C(C)=C/C=C/C(C)=C/C=C/C=C(C)/C=C/C=C(C)/C=C/C2=C(C)CCCC2(C)C)C(C)(C)CCC1", "note": "[beta-carotene]", "values": [{"measurement": "observed risk in individuals who receive 20 mg/day", "setting": "[3]; male smokers", "value": "increased risk of lung cancer"}, {"measurement": "observed risk in individuals who receive 20 mg/day", "setting": "[3]; men with previous myocardial infarction", "value": "increased risk of fatal coronary heart attacks"}, {"measurement": "dosage level with no observed adverse effects", "setting": "[3]; healthy, non-smokers", "value": "≤ 25", "unit": "mg per day"}, {"measurement": "efficiency of conversion to vitamin A in the body", "setting": "[4]", "value": "approximately 50%"}]}
{"compound": "[Zn]", "note": "[zinc]", "values": [{"measurement": "tolerability", "setting": "about 200 mg per day", "value": "well tolerated"}, {"measurement": "side effects", "setting": "about 200 mg per day, attributable to copper deficiency", "value": "potential side effects such as anemia"}, {"measurement": "retarding macular degeneration changes", "setting": "macular degeneration", "value": "significantly better than placebo"}]}
{"compound": "O=C1O[C@H]([C@@H](O)CO)C(O)=C1O", "note": "[vitamin C, Ascorbic acid]", "values": [{"measurement": "daily intake without any known adverse effects", "setting": "[5]", "value": "≥ 1,000 mg"}]}
{"compound": "vitamin E", "values": [{"measurement": "time stored vitamin E contributes to the total body pool", "setting": "[6]", "value": "up to one"}]}
